Measured values: PubChem BioAssay (NCI)
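Tested at 5 concentrations; 48 h exposure; 96-well plates; endpoints linearly interpolated, else capped at highest concentration. At the TGI there is no net growth.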

Key:
Test in all cases: growth of human tumour cells (NCI), 48 h
MDA-MB-231 breast = test system: MDA-MB-231 breast
SK-OV-3 ovarian = test system: SK-OV-3 ovarian
NCI-H23 lung = test system: NCI-H23 lung
UACC-62 melanoma = test system: UACC-62 melanoma
MCF7 breast = test system: MCF7 breast
OVCAR-3 ovarian = test system: OVCAR-3 ovarian
SF-539 CNS = test system: SF-539 CNS
T-47D breast = test system: T-47D breast
SNB-75 CNS = test system: SNB-75 CNS
CCRF-CEM leukemia = test system: CCRF-CEM leukemia
HCC-2998 colon = test system: HCC-2998 colon
K-562 leukemia = test system: K-562 leukemia
SK-MEL-28 melanoma = test system: SK-MEL-28 melanoma
HOP-62 NSCLC = test system: HOP-62 NSCLC
TK-10 renal = test system: TK-10 renal
DU-145 prostate = test system: DU-145 prostate
A498 renal = test system: A498 renal
OVCAR-5 ovarian = test system: OVCAR-5 ovarian
RPMI-8226 leukemia = test system: RPMI-8226 leukemia
CAKI-1 renal = test system: CAKI-1 renal
UACC-257 melanoma = test system: UACC-257 melanoma
U251 CNS = test system: U251 CNS
SNB-19 CNS = test system: SNB-19 CNS
MALME-3M melanoma = test system: MALME-3M melanoma
NCI/ADR-RES ovarian = test system: NCI/ADR-RES ovarian
ACHN renal = test system: ACHN renal
MDA-MB-435 = test system: MDA-MB-435
786-0 renal = test system: 786-0 renal
SF-268 CNS = test system: SF-268 CNS
COLO 205 colon = test system: COLO 205 colon
A549 NSCLC = test system: A549 NSCLC
SN12C renal = test system: SN12C renal
SW-620 colon = test system: SW-620 colon
OVCAR-4 ovarian = test system: OVCAR-4 ovarian
HT29 colon = test system: HT29 colon
HCT-116 colon = test system: HCT-116 colon
SF-295 CNS = test system: SF-295 CNS
IGROV1 ovarian = test system: IGROV1 ovarian
MOLT-4 leukemia = test system: MOLT-4 leukemia
HL-60(TB) leukemia = test system: HL-60(TB) leukemia
NCI-H226 lung = test system: NCI-H226 lung
SK-MEL-5 melanoma = test system: SK-MEL-5 melanoma
EKVX NSCLC = test system: EKVX NSCLC
NCI-H460 lung = test system: NCI-H460 lung
LOX IMVI melanoma = test system: LOX IMVI melanoma
SR leukemia = test system: SR leukemia
UO-31 renal = test system: UO-31 renal
OVCAR-8 ovarian = test system: OVCAR-8 ovarian
BT-549 breast = test system: BT-549 breast
RXF 393 renal = test system: RXF 393 renal
HCT-15 colon = test system: HCT-15 colon
MDA-N = test system: MDA-N
KM12 colon = test system: KM12 colon
PC-3 prostate = test system: PC-3 prostate
HS 578T breast = test system: HS 578T breast
HOP-92 NSCLC = test system: HOP-92 NSCLC
NCI-H522 lung = test system: NCI-H522 lung
M14 melanoma = test system: M14 melanoma
SK-MEL-2 melanoma = test system: SK-MEL-2 melanoma

Structure (SMILES): CC(=O)OCC1=C(C)C(OC(=O)C(OC(C)=O)[C@@H](NC(=O)c2ccccc2)c2ccccc2)CCC1(C)C (some centres not stated)
- TGI (MDA-MB-231 breast): > 100 µM
- TGI (SK-OV-3 ovarian): > 100 µM
- TGI (NCI-H23 lung): > 100 µM
- TGI (UACC-62 melanoma): > 100 µM
- TGI (MCF7 breast): > 100 µM
- TGI (OVCAR-3 ovarian): > 100 µM
- TGI (SF-539 CNS): > 100 µM
- TGI (T-47D breast): > 100 µM
- TGI (SNB-75 CNS): > 100 µM
- TGI (CCRF-CEM leukemia): > 100 µM
- TGI (HCC-2998 colon): > 100 µM
- TGI (K-562 leukemia): > 100 µM
- TGI (SK-MEL-28 melanoma): > 100 µM
- TGI (HOP-62 NSCLC): > 100 µM
- TGI (TK-10 renal): > 100 µM
- TGI (DU-145 prostate): > 100 µM
- TGI (A498 renal): > 100 µM
- TGI (OVCAR-5 ovarian): > 100 µM
- TGI (RPMI-8226 leukemia): > 100 µM
- TGI (CAKI-1 renal): > 100 µM
- TGI (UACC-257 melanoma): > 100 µM
- TGI (U251 CNS): > 100 µM
- TGI (SNB-19 CNS): > 100 µM
- TGI (MALME-3M melanoma): > 100 µM
- TGI (NCI/ADR-RES ovarian): > 100 µM
- TGI (ACHN renal): > 100 µM
- TGI (MDA-MB-435): > 100 µM
- TGI (786-0 renal): > 100 µM
- TGI (SF-268 CNS): > 100 µM
- TGI (COLO 205 colon): > 100 µM
- TGI (A549 NSCLC): > 100 µM
- TGI (SN12C renal): > 100 µM
- TGI (SW-620 colon): > 100 µM
- TGI (OVCAR-4 ovarian): > 100 µM
- TGI (HT29 colon): > 100 µM
- TGI (HCT-116 colon): > 100 µM
- TGI (SF-295 CNS): > 100 µM
- TGI (IGROV1 ovarian): > 100 µM
- TGI (MOLT-4 leukemia): > 100 µM
- TGI (HL-60(TB) leukemia): > 100 µM
- TGI (NCI-H226 lung): > 100 µM
- TGI (SK-MEL-5 melanoma): > 100 µM
- TGI (EKVX NSCLC): > 100 µM
- TGI (NCI-H460 lung): > 100 µM
- TGI (LOX IMVI melanoma): > 100 µM
- TGI (SR leukemia): > 100 µM
- TGI (UO-31 renal): > 100 µM
- TGI (OVCAR-8 ovarian): > 100 µM
- TGI (BT-549 breast): > 100 µM
- TGI (RXF 393 renal): > 100 µM
- TGI (HCT-15 colon): > 100 µM
- TGI (MDA-N): > 100 µM
- TGI (KM12 colon): > 100 µM

Structure (SMILES): CCC(=O)O[C@H]1CC[C@H]2[C@@H]3CCC4=C/C(=N/NC(=O)c5cccc6c(=O)c7ccccc7[nH]c56)CC[C@]4(C)[C@H]3CC[C@]12C
- TGI (MDA-MB-231 breast): > 25 µM
- TGI (SK-OV-3 ovarian): > 25 µM
- TGI (PC-3 prostate): > 25 µM
- TGI (NCI-H23 lung): > 25 µM
- TGI (UACC-62 melanoma): > 25 µM
- TGI (MCF7 breast): > 25 µM
- TGI (OVCAR-3 ovarian): > 25 µM
- TGI (HS 578T breast): > 25 µM
- TGI (SF-539 CNS): > 25 µM
- TGI (T-47D breast): > 25 µM
- TGI (SNB-75 CNS): > 25 µM
- TGI (CCRF-CEM leukemia): > 25 µM
- TGI (HCC-2998 colon): > 25 µM
- TGI (K-562 leukemia): > 25 µM
- TGI (SK-MEL-28 melanoma): > 25 µM
- TGI (HOP-62 NSCLC): > 25 µM
- TGI (TK-10 renal): > 25 µM
- TGI (A498 renal): > 25 µM
- TGI (OVCAR-5 ovarian): > 25 µM
- TGI (RPMI-8226 leukemia): > 25 µM
- TGI (UACC-257 melanoma): > 25 µM
- TGI (HOP-92 NSCLC): > 25 µM
- TGI (U251 CNS): > 25 µM
- TGI (SNB-19 CNS): > 25 µM
- TGI (NCI/ADR-RES ovarian): > 25 µM
- TGI (ACHN renal): > 25 µM
- TGI (MDA-MB-435): > 25 µM
- TGI (786-0 renal): 10.3 µM
- TGI (SF-268 CNS): > 25 µM
- TGI (COLO 205 colon): > 25 µM
- TGI (A549 NSCLC): > 25 µM
- TGI (SN12C renal): > 25 µM
- TGI (SW-620 colon): > 25 µM
- TGI (OVCAR-4 ovarian): > 25 µM
- TGI (HT29 colon): > 25 µM
- TGI (SF-295 CNS): > 25 µM
- TGI (NCI-H522 lung): > 25 µM
- TGI (IGROV1 ovarian): > 25 µM
- TGI (M14 melanoma): > 25 µM
- TGI (SK-MEL-2 melanoma): > 25 µM
- TGI (MOLT-4 leukemia): > 25 µM
- TGI (NCI-H226 lung): > 25 µM
- TGI (SK-MEL-5 melanoma): > 25 µM
- TGI (EKVX NSCLC): > 25 µM
- TGI (NCI-H460 lung): > 25 µM
- TGI (LOX IMVI melanoma): > 25 µM
- TGI (SR leukemia): > 25 µM
- TGI (UO-31 renal): > 25 µM
- TGI (OVCAR-8 ovarian): > 25 µM
- TGI (BT-549 breast): > 25 µM
- TGI (RXF 393 renal): > 25 µM
- TGI (HCT-15 colon): > 25 µM
- TGI (MDA-N): > 25 µM
- TGI (KM12 colon): > 25 µM
